Source: patent publication US20070213359A1 (ACADIA Pharmaceuticals Inc., priority 2005, published 2007)
Like-named read-outs stand apart in the source and are kept apart here.

Legend:
GHSR1a receptor = molecular target: T1, GHSR1a receptor (Homo sapiens, UniProt Q92847); test: 125I-Ghrelin binding assay; conditions: displacement of 125I-ghrelin (0.053 nM), membranes of HEK293 cells transfected with GHSR1a; Cheng-Prussoff; '—' not defined; read-out: Binding pKi (converted)
T1 construct: expressed in transfected cells; host or cells: HEK293 (membranes)
T1 sequence (Q92847 whole entry): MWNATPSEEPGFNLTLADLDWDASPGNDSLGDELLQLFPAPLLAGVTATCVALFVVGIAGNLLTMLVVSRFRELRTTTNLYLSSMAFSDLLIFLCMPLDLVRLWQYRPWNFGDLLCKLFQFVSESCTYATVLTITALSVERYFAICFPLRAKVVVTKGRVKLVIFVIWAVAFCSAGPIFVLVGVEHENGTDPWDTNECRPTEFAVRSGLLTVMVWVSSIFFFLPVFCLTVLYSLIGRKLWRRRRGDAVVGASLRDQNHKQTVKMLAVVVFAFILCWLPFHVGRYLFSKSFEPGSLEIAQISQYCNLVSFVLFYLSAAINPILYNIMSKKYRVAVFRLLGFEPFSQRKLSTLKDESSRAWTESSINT

Ghrelin receptor = Ghrelin receptor (Homo sapiens, UniProt Q92847); test: Receptor Selection and Amplification Technology (R-SAT) assay; assay type: cell-based; set-up: expressed in transfected cells; host or cells: NIH3T3; conditions: for IC50: '—' not defined (nd used separately), read-out: RSAT pIC50 (converted); for Emax: read-out: RSAT Eff(%)
Sequence of Ghrelin receptor (Q92847 whole entry): as above

[1] = negative logarithm of ligand concentration causing 50% inhibition of constitutive receptor response, transfected NIH3T3 cells
[2] = percent inhibition at saturating ligand, normalized to reference ligand Substance P analog = 100%

SMILES	Ki (GHSR1a receptor)	IC50 (Ghrelin receptor; [1])	Emax (Ghrelin receptor; [2])	RSAT Eff(%) (Ghrelin receptor; [2])	Emax (Ghrelin receptor)	IC50 (Ghrelin receptor; […])
CC(=O)c1cn(CCCN2C3CCC2CC(CC(=O)c2ccccc2)C3)c2c(C)cccc12 (stereo not drawn)	200 nM	0.794 nM	91%	–	–	–
CCCCC[C@H]1C[C@H]2CC[C@@H](C1)N2CCCn1cc(C(C)=O)c2cccc(Br)c21	158 nM	1.26 nM	81%	–	–	–
COc1cccc2c(C(C)=O)cn(CCCN3CCCN(Cc4ccc(F)cc4)CC3)c12	15.8 nM	1.26 nM	–	130%	–	–
CCc1cccc2c(C(C)=O)cn(CCCN3CCC(Oc4cccc(Cl)c4)CC3)c12	31.6 nM	1.58 nM	118%	–	–	–
COc1cccc2c(C(=O)NCC(C)C)cn(CCCN3CCC(Oc4ccc(F)cc4)CC3)c12	126 nM	1.58 nM	–	–	90%	–
COc1cccc2c(C(=O)C3CC3)cn(CCCN3CCC(Oc4cccc(Cl)c4)CC3)c12	20 nM	1.58 nM	–	–	102%	–
CCCCC[C@H]1C[C@H]2CC[C@@H](C1)N2CCCn1cc(C(C)=O)c2cccc(OC)c21	316 nM	2 nM	–	113%	–	–
COc1cccc2c(C(C)=O)cn(CC(C)CN3CCCN(Cc4ccccc4Cl)CC3)c12 (stereo not drawn)	100 nM	10 nM	123%	–	–	–
COc1cccc2c(C(C)=O)cn(CCCN3C4CC[C@H]3C[C@@H](Oc3ccc(Cl)cc3)C4)c12	200 nM	–	–	–	114%	10 nM
COc1ccccc1C1CCN(CCCn2cc(C(=O)c3ccccc3)c3cccc(OC)c32)CC1	158 nM	–	–	–	88%	12.6 nM
COc1cccc2c(C(=O)c3ccccc3)cn(CCCN3C4CCC3CC(Oc3ccc(F)cc3)C4)c12 (stereo not drawn)	158 nM	–	–	–	106%	12.6 nM
COc1cccc2c(C(C)=O)cn(CCCN3C4CCC3CC(Oc3ccc(Cl)cc3)C4)c12 (stereo not drawn)	501 nM	12.6 nM	–	113%	–	–
COc1cccc2c(C(C)=O)cn(CCCN3CCN(c4ccc(C#N)cc4)CC3)c12	631 nM	12.6 nM	90%	–	–	–
COc1cccc2c(C(=O)Cc3ccccc3)cn(CCCN3C4CCC3CC(CC(=O)c3ccc(Cl)cc3)C4)c12 (stereo not drawn)	31.6 nM	–	–	–	167%	12.6 nM
CC(=O)c1c(C)n(CCCN2C3CCC2CC(CCc2ccc(Cl)cc2)C3)c2c(Br)cccc12 (stereo not drawn)	316 nM	12.6 nM	69%	–	–	–
CC(=O)c1cn(CCCN2CCC(Oc3ccccc3Cl)CC2)c2c(Br)cccc12	126 nM	12.6 nM	96%	–	–	–
COc1cccc2c(C(=O)c3ccccc3)cn(CCCN3CCN(CCOc4ccccc4)CC3)c12	251 nM	–	–	–	98%	12.6 nM
COc1cccc2c(C(=O)Cc3ccccc3)cn(CCCN3CCN(CCOc4ccccc4)CC3)c12	39.8 nM	–	–	–	99%	12.6 nM
COc1cccc2c(C(C)=O)cn(CCCN3CCC(Oc4ccccc4Cl)CC3)c12	794 nM	15.8 nM	–	98%	–	–
CC(=O)c1cn(CCCN2CCC(Oc3cccc(Cl)c3)CC2)c2ncccc12	316 nM	15.8 nM	124%	–	–	–
CCCCC1CCN(CCCn2cc(C(=O)NCc3cccc(C)c3)c3cccc(OC)c32)CC1	316 nM	–	–	–	72%	15.8 nM

SMILES	Ki (GHSR1a receptor)	IC50 (Ghrelin receptor; [1])	Emax (Ghrelin receptor; [2])	RSAT Eff(%) (Ghrelin receptor; [2])	Emax (Ghrelin receptor)	IC50 (Ghrelin receptor; […])
COc1cccc2c(C(C)=O)cn(CCCN3CCN(c4ccc(F)cc4)CC3)c12	501 nM	15.8 nM	95%	–	–	–
CC(=O)c1cn(CCCN2C3CCC2CC(Oc2ccc(F)cc2)C3)c2ncccc12 (stereo not drawn)	501 nM	15.8 nM	77%	–	–	–
CCCCC1CCN(CCCn2cc(C(C)=O)c3cccc(Br)c32)CC1	158 nM	20 nM	87%	–	–	–
COc1cccc2c(C(C)=O)cn(CCCN3CCN(Oc4ccccc4Cl)CC3)c12	316 nM	20 nM	100%	–	–	–
CC(=O)c1cn(CCCN2C3CCC2CC(Oc2ccccc2Cl)C3)c2c(C#N)cccc12 (stereo not drawn)	200 nM	20 nM	83%	–	–	–
CC(=O)c1cn(CCCN2CCC(Oc3ccccc3Cl)CC2)c2c(C)cccc12	631 nM	20 nM	110%	–	–	–
CC(=O)c1cn(CCCN2CCC(Oc3cccc(Cl)c3)CC2)c2c(Cl)cccc12	100 nM	20 nM	83%	–	–	–
CCCCC1CCN(CCCn2cc(C(C)=O)c3cccc(OC)c32)CC1	1580 nM	20 nM	116%	–	–	–
CCc1cccc2c(C(C)=O)cn(CCCN3C4CCC3CC(CCc3ccc(Cl)cc3)C4)c12 (stereo not drawn)	100 nM	20 nM	–	–	95%	–
COc1cccc2c(C(=O)c3ccccc3)cn(CCCNCCOc3ccccc3)c12	158 nM	–	–	–	74%	20 nM
CC(=O)c1cn(CCCN2C3CCC2CC(Oc2ccccc2Cl)C3)c2ncccc12 (stereo not drawn)	31.6 nM	20 nM	108%	–	–	–
COc1cccc2c(C(=O)c3ccccc3)cn(CCCN3CCC(Oc4ccc(F)cc4)CC3)c12	1260 nM	–	–	–	107%	25.1 nM
COc1ccccc1C1CCN(CCCn2cc(C(=O)NCC(C)C)c3cccc(OC)c32)CC1	126 nM	25.1 nM	–	–	108%	–
COc1cccc2c(C(C)=O)cn(CCCN3CCN(c4ccccc4Cl)CC3)c12	2510 nM	25.1 nM	108%	–	–	–
COc1cccc2c(C(C)=O)cn(CCCN3CCN(c4ccc(C(F)(F)F)cc4)CC3)c12	251 nM	25.1 nM	92%	–	–	–
COc1cccc2c(C(=O)Cc3ccccc3)cn(CCCN3CCCC(Cc4ccccc4Cl)C3)c12 (stereo not drawn)	126 nM	–	–	–	116%	25.1 nM
Cc1cccc(CNC(=O)n2cc(CCCN3C4CCC3CC(CCc3ccccc3)C4)c3ccccc32)c1 (stereo not drawn)	158 nM	31.6 nM	114%	–	–	–
O=C(c1cn(CCCN2C3CCC2CC(CCc2ccccc2)C3)c2ncccc12)C(F)(F)F (stereo not drawn)	200 nM	31.6 nM	104%	–	–	–
COc1cccc2c(C(C)=O)cn(CCCN3CCC(Cc4ccccc4)CC3)c12	794 nM	31.6 nM	116%	–	–	–
O=C(c1cn(CCCN2CCCN(Cc3ccccc3Cl)CC2)c2ncccc12)C(F)(F)F	50.1 nM	31.6 nM	85%	–	–	–
COc1ccccc1C1CCN(CCCn2cc(C(C)=O)c3cccc(OC)c32)CC1	631 nM	39.8 nM	–	109%	–	–

SMILES	Ki (GHSR1a receptor)	IC50 (Ghrelin receptor; [1])	Emax (Ghrelin receptor; [2])	RSAT Eff(%) (Ghrelin receptor; [2])	Emax (Ghrelin receptor)	IC50 (Ghrelin receptor; […])
CC(=O)c1cn(CCCN2CCC(Oc3ccc(F)cc3)CC2)c2c(Cl)cccc12	2000 nM	39.8 nM	120%	–	–	–
COc1cccc2c(C(C)=O)cn(CCCN3CCC(C(=O)c4ccccc4)CC3)c12	2000 nM	39.8 nM	–	98%	–	–
COc1cccc2c(C(C)=O)cn(CCCN3CCN(c4ccc(C(F)(F)F)cc4[N+](=O)[O-])CC3)c12	631 nM	39.8 nM	94%	–	–	–
COc1cccc2c(C#N)cn(CCCN3C4CCC3CC(CCc3ccc(Cl)cc3)C4)c12 (stereo not drawn)	251 nM	39.8 nM	77%	–	–	–
CC(=O)c1cn(CCCN2CCC(Oc3ccc(Cl)cc3)CC2)c2c(C)cccc12	2000 nM	39.8 nM	101%	–	–	–
COc1cccc2c(C(C)=O)cn(CC(C)CN3CCC(Oc4cccc(Cl)c4)CC3)c12 (stereo not drawn)	794 nM	39.8 nM	102%	–	–	–
COc1ccccc1C1CCN(CCCn2cc(C(C)=O)c3cccc(C)c32)CC1	1260 nM	39.8 nM	116%	–	–	–
CC(=O)c1cn(CCCN2C3CCC2CC(Oc2ccc(F)cc2)C3)c2c(C#N)cccc12 (stereo not drawn)	100 nM	50.1 nM	93%	–	–	–
COc1cccc2c(C(=O)NCc3cccc(Cl)c3)cn(CCCN3C4CCC3CC(Oc3ccc(Cl)cc3)C4)c12 (stereo not drawn)	251 nM	50.1 nM	–	97%	–	–
COc1ccc(C(=O)OC2C[C@H]3CC[C@@H](C2)N3CCCn2cc(C(C)=O)c3cccc(OC)c32)cc1OC (stereo partly drawn)	1000 nM	50.1 nM	–	–	104%	–
COc1ccccc1C1CCN(CCCn2cc(C(C)=O)c3cccc(Br)c32)CC1	316 nM	50.1 nM	109%	–	–	–
CC(=O)c1cn(CCCN2C3CCC2CC(Oc2ccc(Cl)cc2)C3)c2c(Cl)cccc12 (stereo not drawn)	1000 nM	50.1 nM	104%	–	–	–
CC(=O)c1cn(CCCN2C3CCC2CC(CCc2ccc(Cl)cc2)C3)c2ncccc12 (stereo not drawn)	398 nM	79.4 nM	87%	–	–	–
CC(=O)c1cn(CCCN2CCC(C(=O)c3ccccc3)CC2)c2c(Br)cccc12	1580 nM	79.4 nM	84%	–	–	–
COc1cccc2c(C#N)cn(CCCN3C4CCC3CC(Oc3ccccc3Cl)C4)c12 (stereo not drawn)	631 nM	100 nM	114%	–	–	–
CC(C)CC(=O)c1cn(CCCN2CCC(Oc3ccc(F)cc3)CC2)c2ccccc12	1000 nM	–	–	–	93%	100 nM
CCc1cccc2c(C(C)=O)cn(CCCNCCOc3ccccc3)c12	12.6 nM	100 nM	106%	–	–	–
CCCCC(=O)c1cn(CCCN2CCC(Oc3ccc(Cl)cc3)CC2)c2ccc(OC)cc12	251 nM	126 nM	–	–	111%	–
CC(=O)c1cn(CCCN2CCC(Oc3ccc(Cl)cc3)CC2)c2ccccc12	2510 nM	126 nM	104%	–	–	–
CCCCCC=C1CCN(CCCn2cc(C(C)=O)c3ccccc32)CC1	200 nM	200 nM	139%	–	–	–
